{"source": "patent US20240057598A1", "about": "“USE OF 2-AMINO-3-METHYLHEXANOIC ACID AS PLANT IMMUNITY INDUCER” (NANJING AGRICULTURAL UNIVERSITY, priority 2020, published 2024)", "key": {"wheat": {"tested_on": "wheat", "assay": "Induced resistance of wheat to drought stress (25% PEG-6000)", "assay_type": "in vivo", "conditions": "for Drought injury index / Dry weight Overground part / Dry weight Underground part / Fresh weight Overground part / Fresh weight Underground part / Length of root: wheat, 25% PEG-6000 6 days, 7 days recovery", "procedure": "Wheat was cultured in water in a 6-mesh sieve used as a container according to 50 grains per sieve, and ½ Hoagland nutrient solution was changed every three days. When the wheat grew to the stage of two leaves and one bud, the leaf surface was sprayed with 2-amino-3-methylhexanoic acid solutions, the concentration of the 2-amino-3-methylhexanoic acid was 0, 100 and 1,000 nM, and 0.02% Tween 20 was added as a surfactant. After two days of continuous spraying, the water culture nutrient solution was replaced with ½ Hoagland nutrient solution containing 25% PEG-6000 on the 3rd day for stress treatment. After 6 days of drought stress, rehydration treatment was conducted. After 7 days of recovery growth in a normal nutrient solution, the drought index was observed and determined, and the root length and biomass were determined.\nThe performance characteristics of drought injury of leaves are similar to those of salt injury. The drought injury rate and the drought injury index were introduced by using the evaluation indexes of salt injury. The formula for calculating the drought injury index is as follows, and the grading standard of drought injury is shown in Table 11."}, "tomato": {"tested_on": "tomato", "assay": "Induced resistance of tomato to high temperature stress", "assay_type": "in vivo", "procedure": "(§1) 2-amino-3-methylhexanoic acid was dissolved in distilled water and diluted with distilled water into solutions of 1 nM, 10 nM, 100 nM and 1,000 nM by gradient. A blank control was additionally set, and 0.02% Tween 20 was added as a surfactant. 4 groups of repetitions were set for each concentration, and a normal temperature blank control was set at the same time. Ryegrass seeds were weighed according to 0.8 g per pot, sowed in a pot with a diameter of 8.5 cm, and planted in a greenhouse at a temperature of 25° C., a humidity of 60%-70%, and a light intensity of 200 μmolm^−2s^−1 (12 h light/12 h dark). On the 8th day of the seedling stage, the ryegrass was sprayed with the 2-amino-3-methylhexanoic acid solutions on the leaves twice in 24 h. 24 h after the second treatment, the plants were transferred to a light incubator at a temperature of 45° C. for conducting high temperature stress treatment for 12 h, and then the plants were taken out and transferred to a greenhouse at a temperature of 25° C. for 7 days of recovery. The injured conditions of the plants were observed and counted, and the heat injury grade was calculated. […] After the counting, the fresh weight of the aboveground part of the plant was weighed, and then the aboveground part was baked in an 85° C. oven for 48 h to determine the dry weight.\nTomato seeds were sowed in small pots, and three tomato seedlings with the same growth condition were transplanted into one pot after emergence. The planting method and conditions were the same as above. When the tomato grew for 18 days in the seedling stage, the experiment was conducted. High temperature stress was conducted at 42° C. for 9 h, and the treatment method and subsequent statistical indexes were the same as those of the above."}, "Achromobacter butyri": {"tested_on": "Achromobacter butyri", "conditions": "cited from earlier work"}, "ryegrass": {"tested_on": "ryegrass", "assay": "Induced resistance of ryegrass to high temperature stress", "assay_type": "in vivo", "conditions": "for Dry weight of overground part / Fresh weight of overground part / Heat injury index: 45° C. 12 h, 7 days recovery", "procedure": "as §1"}, "P. fluorescens": {"tested_on": "P. fluorescens", "conditions": "cited from earlier work"}, "powdery mildew fungus": {"tested_on": "powdery mildew fungus", "assay": "Induced resistance of wheat to powdery mildew fungus infection", "assay_type": "in vivo", "procedure": "2-amino-3-methylhexanoic acid was dissolved in distilled water and diluted with distilled water into solutions of 1 nM, 10 nM, 100 nM, 1,000 nM and 10,000 nM by gradient, and blank control was additionally set. Wheat seeds were germinated, planted in a sterilized soil culture pot and cultured in a greenhouse at 23(±1)° C. with light for 12 h. When the seedlings grew to the stage of one leaf and one bud, the stems and leaves of the wheat seedlings were sprayed with the 2-amino-3-methylhexanoic acid solutions of the above concentrations. The treatment was repeated once after 24 h and conducted twice in total. After 24 h, fresh wheat powdery mildew spores were evenly scattered on the wheat leaves in three pots, with 20 plants per pot. After 10 days, the disease grade of wheat treated at each concentration was investigated. The disease degree was recorded according to the wheat powdery mildew grading standard in the Guidelines for the Field Efficacy Trials of Pesticides (I), and the disease index and relative immune effect were calculated by a method the same as that for calculating the disease index and relative immune effect of tomato spotted wilt. At the same time, the middle segment of the last but one leaf of wheat was taken and the distribution of mycelia on the wheat leaves was observed by referring to Wolf and Fric's rapid staining method of powdery mildew. Grading standard of wheat powdery mildew (per leaf): • Grade 1: The diseased spot area accounts for 5% or less of the whole leaf area. • Grade 3: The diseased spot area accounts for 6-15% of the whole leaf area. • Grade 5: The diseased spot area accounts for 16-25% of the whole leaf area. • Grade 7: The diseased spot area accounts for 26-50% of the whole leaf area. • Grade 9: The diseased spot area accounts for 50% or more of the whole leaf area."}, "E. coli B": {"tested_on": "E. coli B", "conditions": "cited from earlier work"}, "Aerobacter aerogenes": {"tested_on": "Aerobacter aerogenes", "conditions": "cited from earlier work"}, "S. marcescens": {"tested_on": "S. marcescens", "conditions": "cited from earlier work"}, "[1]": {"conditions": "1,000 nM, wheat seedlings, drought stress"}, "[2]": {"conditions": "10 nM, 42° C. 9 h, 7 days recovery"}, "[3]": {"conditions": "100 nM, 42° C. 9 h, 7 days recovery"}, "[4]": {"conditions": "1,000 nM, 42° C. 9 h, 7 days recovery"}, "[5]": {"conditions": "100 nM, compared with untreated control group"}, "[6]": {"conditions": "concentration greater than 1,000 nM, susceptible wheat variety"}}}
{"smiles": "CCCC(C)C(N)C(=O)O", "note": "(centres unmarked) [2-amino-3-methylhexanoic acid]", "values": [{"measurement": "Drought injury index", "setting": "wheat; 100 nM", "value": 50, "unit": "%"}, {"measurement": "Dry weight Overground part", "setting": "wheat; 100 nM", "value": "0.79 ± 0.01", "unit": "a"}, {"measurement": "Dry weight Underground part", "setting": "wheat; 100 nM", "value": "0.34 ± 0.02", "unit": "a"}, {"measurement": "Fresh weight Overground part", "setting": "wheat; 100 nM", "value": "6.71 ± 0.69", "unit": "b"}, {"measurement": "Fresh weight Underground part", "setting": "wheat; 100 nM", "value": "3.48 ± 0.40", "unit": "a"}, {"measurement": "Length of root", "setting": "wheat; 100 nM", "value": "13.83 ± 0.26", "unit": "b"}, {"measurement": "Decrease of drought index", "setting": "wheat; [1]", "value": 36, "unit": "%"}, {"measurement": "Increase of dry weight of aboveground part", "setting": "wheat; [1]", "value": 10.00, "unit": "%"}, {"measurement": "Increase of dry weight of underground part", "setting": "wheat; [1]", "value": 18.75, "unit": "%"}, {"measurement": "Increase of fresh weight of aboveground part", "setting": "wheat; [1]", "value": 35.82, "unit": "%"}, {"measurement": "Increase of fresh weight of underground part", "setting": "wheat; [1]", "value": 34.33, "unit": "%"}, {"measurement": "Increase of root length compared with control group", "setting": "wheat; [1]", "value": 6, "unit": "%"}, {"measurement": "Drought injury index", "setting": "wheat; 1,000 nM", "value": 30, "unit": "%"}, {"measurement": "Dry weight Overground part", "setting": "wheat; 1,000 nM", "value": "0.88 ± 0.05", "unit": "a"}, {"measurement": "Dry weight Underground part", "setting": "wheat; 1,000 nM", "value": "0.38 ± 0.02", "unit": "a"}, {"measurement": "Fresh weight Overground part", "setting": "wheat; 1,000 nM", "value": "8.72 ± 0.59", "unit": "a"}, {"measurement": "Fresh weight Underground part", "setting": "wheat; 1,000 nM", "value": "4.46 ± 0.01", "unit": "a"}, {"measurement": "Length of root", "setting": "wheat; 1,000 nM", "value": "14.50 ± 0.27", "unit": "a"}, {"measurement": "Optimum concentration inducing resistance to high temperature stress", "setting": "tomato", "value": "1,000 nM"}, {"measurement": "Dry weight of overground part", "setting": "tomato; [2]", "value": "0.05 ± 0.01", "unit": "b g"}, {"measurement": "Heat injury index", "setting": "tomato; [2]", "value": 95}, {"measurement": "Dry weight of overground part", "setting": "tomato; [3]", "value": "0.06 ± 0.02", "unit": "g·h"}, {"measurement": "Fresh weight of overground part", "setting": "tomato; [3]", "value": "0.61 ± 0.16", "unit": "abc g"}, {"measurement": "Heat injury index", "setting": "tomato; [3]", "value": 90}, {"measurement": "Dry weight of overground part", "setting": "tomato; [4]", "value": "0.08 ± 0.003", "unit": "ab g"}, {"measurement": "Heat injury index", "setting": "tomato; [4]", "value": 60}, {"measurement": "Inhibitory effect", "setting": "Achromobacter butyri", "value": "slight inhibitory effect"}, {"measurement": "Optimal use concentration to alleviate high temperature stress", "setting": "ryegrass", "value": 100, "unit": "nM"}, {"measurement": "Dry weight of overground part", "setting": "ryegrass; 1 nM", "value": "0.4 ± 0.01", "unit": "bc g"}, {"measurement": "Fresh weight of overground part", "setting": "ryegrass; 1 nM", "value": "1.96 ± 0.19", "unit": "b g"}, {"measurement": "Heat injury index", "setting": "ryegrass; 1 nM", "value": 70, "unit": "%"}, {"measurement": "Dry weight of overground part", "setting": "ryegrass; 10 nM", "value": "0.46 ± 0.04", "unit": "ab g"}, {"measurement": "Fresh weight of overground part", "setting": "ryegrass; 10 nM", "value": "2.14 ± 0.095", "unit": "g"}, {"measurement": "Heat injury index", "setting": "ryegrass; 10 nM", "value": 60, "unit": "%"}, {"measurement": "Dry weight of overground part", "setting": "ryegrass; 100 nM", "value": "0.44 ± 0.02", "unit": "nb g"}, {"measurement": "Fresh weight of overground part", "setting": "ryegrass; 100 nM", "value": "2.60 ± 0.02", "unit": "b g"}, {"measurement": "Heat injury index", "setting": "ryegrass; 100 nM", "value": 30, "unit": "%"}, {"measurement": "Increase of dry weight of aboveground part", "setting": "ryegrass; [5]", "value": 25, "unit": "%"}, {"measurement": "Increase of fresh weight of aboveground part", "setting": "ryegrass; [5]", "value": 162, "unit": "%"}, {"measurement": "Dry weight of overground part", "setting": "ryegrass; 1,000 nM", "value": "0.45 ± 0.01", "unit": "ab g"}, {"measurement": "Fresh weight of overground part", "setting": "ryegrass; 1,000 nM", "value": "2.42 ± 0.15", "unit": "b g"}, {"measurement": "Heat injury index", "setting": "ryegrass; 1,000 nM", "value": 30, "unit": "%"}, {"measurement": "Inhibitory effect", "setting": "P. fluorescens", "value": "no inhibitory effect"}, {"measurement": "Relative immune effect", "setting": "powdery mildew fungus; 1 nM, wheat", "value": 3.5, "unit": "%"}, {"measurement": "Relative immune effect", "setting": "powdery mildew fungus; 10 nM, wheat", "value": 15.56, "unit": "%"}, {"measurement": "Relative immune effect", "setting": "powdery mildew fungus; 100 nM, wheat", "value": 27.63, "unit": "%"}, {"measurement": "Relative immune effect", "setting": "powdery mildew fungus; 1,000 nM, wheat", "value": 55.06, "unit": "%"}, {"measurement": "Relative immune effect", "setting": "powdery mildew fungus; 10,000 nM, wheat", "value": 65.37, "unit": "%"}, {"measurement": "Disease index", "setting": "powdery mildew fungus; [6]", "value": "lower than 50"}, {"measurement": "Relative immune effect", "setting": "powdery mildew fungus; [6]", "value": "more than 50%"}, {"measurement": "Inhibitory effect", "setting": "E. coli B", "value": "slight inhibitory effect"}, {"measurement": "Inhibitory effect", "setting": "Aerobacter aerogenes", "value": "no inhibitory effect"}, {"measurement": "Inhibitory effect", "setting": "S. marcescens", "value": "no inhibitory effect"}]}
